Results from patent US8921312B2, “Combination of insulin and ascorbate to enhance wound healing” (University of South Florida, priority 2006, dated 2014).

How the values were obtained:
collagen types I and V = test: Collagen helix stability: pepsin digestion of culture medium, SDS-PAGE; format: cell-based, bovine; settings: pepsin in 0.5M acetic acid
Protocol: Cell Culture-Keratocytes were isolated from adult bovine corneas using two sequential collagenase digestions as previously described (see […], and […]. Production of prostaglandin D synthase as a keratan sulfate proteoglycan by cultured bovine keratocytes Invest Ophthalmol Vis Sci. 2001; 42:1201-1207; which is incorporated herein by reference). […] Each sample received a second 50 μl aliquot from the pepsin stock, and digestion was allowed to continue for an additional six hours at 4° C. The samples were titrated with 1 N NaOH to pH 8.0 to inactivate the enzyme, dialyzed against water overnight, lyophilized, reconstituted in 1 X SDS running buffer and separated on 10% bis-tris gels under reducing conditions. The gels were stained with Safestain following the manufacturer's protocol.

keratocan = test: Western blot of keratan sulfate proteoglycan accumulation in the medium: keratocan; format: cell-based, bovine
Protocol: (§1) Cell Culture-Keratocytes were isolated from adult bovine corneas using two sequential collagenase digestions as previously described (see […], and […]. Production of prostaglandin D synthase as a keratan sulfate proteoglycan by cultured bovine keratocytes Invest Ophthalmol Vis Sci. 2001; 42:1201-1207; which is incorporated herein by reference). […] Western blot analysis-Core protein and protein levels in the media were measured by Western blot as previously described. In brief, the culture media was collected from each culture condition, concentrated by spin filtration to one tenth or one fiftieth of the original volume. The size of the aliquot needed from each sample to provide a similar signal on film by Western blot was empirically determined. The measured pixel density was then divided by the DNA content of the culture equivalent to the amount loaded and expressed as pixel density per μg DNA. Blots were probed with polyclonal antibodies to bovine keratocan or lumican (diluted 1:1000) or prostaglandin D synthase (PGDS) (1:20,000). The lumican and keratocan antibodies are peptide antibodies raised against the core protein^48. The rabbit antiserum to bovine PGDS was a generous gift of Gary […] University). Membranes were rinsed and incubated for 1 hour in 1:10,000 horseradish peroxidase (HRP)-conjugated secondary IgG (GE Healthcare, Piscataway, N.J.). Protein bands were visualized using ECL (GE Healthcare, Piscataway, N.J.) on Kodak Bio-Max XAR X-ray film. Band density was measured using a Bio-Rad GS-710 Calibrated Imaging Densitometer (Bio-Rad, Hercules, Calif.).

lumican = test: Western blot of keratan sulfate proteoglycan accumulation in the medium: lumican; format: cell-based, bovine
Protocol: as §1

[1] = test system: prostaglandin D synthase (PGDS); test: Western blot of keratan sulfate proteoglycan accumulation in the medium: PGDS; format: cell-based, bovine
Protocol: as §1, with “Membranes were rinsed and incubated for 1 hour in 1:10,000 horseradish peroxidase (HRP)-conjugated secondary IgG (GE Healthcare, Piscataway, N.J.). Protein bands were visualized using ECL (GE Healthcare, Piscataway, N.J.) on Kodak Bio-Max XAR X-ray film.” left out

cells = settings: cited from earlier work
keratocytes [2] = test: Keratocyte population growth in defined media (DNA content, Cyquant); format: cell-based, bovine; settings: DMEM/F12; insulin 10 μg/ml, ascorbate 1 mM; days 1-10
From the text: Cell Culture-Keratocytes were isolated from adult bovine corneas using two sequential collagenase digestions as previously described (see […], and […]. Production of prostaglandin D synthase as a keratan sulfate proteoglycan by cultured bovine keratocytes Invest Ophthalmol Vis Sci. 2001; 42:1201-1207; which is incorporated herein by reference). […] DNA quantitation-Cell layers were harvested on days 1, 4, 7 and 10 to measure DNA content using Cyquant (Invitrogen, Carlsbad, Calif.). Briefly, the cell layers were rinsed with PBS, frozen, thawed and solubilized in a lysis buffer supplemented with a DNA binding dye. The DNA content was determined at 480/535 nm by measuring 4 wells in triplicate and comparing the values to a calf thymus DNA standard. The DNA content of parallel cultures was measured for experiments that utilized the cell layer. Cell proliferation-Cultures were radiolabeled with 20 μCi ^3H-thymidine/ml of medium for 72 hours beginning on days 1 and 4. The labeled medium was removed upon harvesting, and the cell layers washed with cold PBS. The cell layers were processed as described under DNA quantitation. Incorporation into DNA was determined as previously described.

keratocytes [3] = test: Collagen synthesis: 3H-glycine incorporation into collagenase-sensitive protein; format: cell-based, bovine; settings: 3H-glycine 72 h
Protocol: Cell Culture—Keratocytes were isolated from adult bovine corneas using two sequential collagenase digestions as previously described (see Berryhill B L, Beales M P, and Hassell J R. Production of prostaglandin D synthase as a keratan sulfate proteoglycan by cultured bovine keratocytes Invest Ophthalmol Vis Sci. 2001; 42:1201-1207; which is incorporated herein by reference). Cells were plated in DMEM/F12 at high density (20,000 cells/cm^2) in 6-well plates (Costar, Cambridge, Mass.) and allowed to attach overnight at 37° C. in 5% CO2. The medium was changed the next day (day 1) and on days 4, 7 and 10 to fresh DMEM or DMEM supplemented with insulin (10 μg/ml), with or without 1 mM 2-phospho-L-ascorbic acid (ascorbate). Ethyl-3,4-dihydroxybenzoate (EDB) was added at 0.08 mM and 0.4 mM final concentration on day 1.
Collagen synthesis—The incorporation of ^3H-glycine into collagen was determined as previously described. In summary, cultures were incubated for 72 hours in medium containing 25 μCi ^3H-glycine/ml beginning on day 1. Media was adjusted to 4M guanidine HCl and the cell layers extracted in 4M guanidine HCl. Unincorporated isotope in media and cell layers was removed by chromatography on PD10 columns equilibrated and eluted with 4M guanidine HCl (GE Healthcare, Piscataway, N.J.). Fractions containing incorporated radioactivity were pooled, dialyzed against water and 400 μl aliquots incubated with or without 2.5 Units collagenase form III (Advanced Biofactures, Lynbrook, N.Y.) in collagenase digestion medium (3 mM N-ethyl maleimide, 50 mM Tris pH 7.5, 150 mM NaCl and 5 mM CaCl2) for 3 hours at 37° C. Undigested proteins were precipitated with carrier BSA using cold 10% TCA containing 0.5% tannic acid and released incorporated counts measured by liquid scintillation. The DNA content was determined as described above.

keratan sulfate = test: Incorporation of 35SO4 into keratan sulfate (endo-β-galactosidase sensitive); format: cell-based, bovine; settings: 72 h labeling; medium; CPM per μg DNA; vs control
From the text: (§2) Cell Culture-Keratocytes were isolated from adult bovine corneas using two sequential collagenase digestions as previously described (see […], and […]. Production of prostaglandin D synthase as a keratan sulfate proteoglycan by cultured bovine keratocytes Invest Ophthalmol Vis Sci. 2001; 42:1201-1207; which is incorporated herein by reference). […] The medium was collected, frozen, lyophilized and reconstituted in 4 M guanidine HCl. Unincorporated isotope was removed using PD 10 columns Fractions containing incorporated ^35SO4 were combined and concentrated using Amicon Ultra spin-concentrators. Incorporation into CS and KS was determined by digestion with chondroitinase ABC or endo-β-galactosidase (Seikagaku, Associates of Cape Cod, E. Falmouth, Mass.) as previously described. Aliquots containing equivalent incorporated radioactivity were fractionated using a Superose 6 12/30 HR column (GE Healthcare, Piscataway, N.J.) equilibrated and eluted with 4M guanidine HCl (0.05 NaAc, pH6.5) at 0.3 ml/min Fractions (0.6 ml) were collected and incorporation measured by liquid scintillation counting. The levels of CS and KS in each fraction were determined as described above.

chondroitin sulfate = test: Incorporation of 35SO4 into chondroitin sulfate (chondroitinase ABC sensitive); format: cell-based, bovine; settings: 72 h labeling; medium; CPM per μg DNA; vs control
From the text: as §2

[4] = 0.08 mM EDB in medium containing insulin and ascorbate, 72 hours, vs insulin+ascorbate
[5] = 0.4 mM EDB in medium containing insulin and ascorbate
[6] = medium day 4, pixel density per μg DNA, vs control

Compound	Pepsin-resistant collagen bands in the medium with EDB (collagen types I and V; 0.4 mM EDB in insulin plus ascorbate medium)	Reduction of keratocan accumulation (keratocan; [4]) [%]	Keratocan accumulation in the medium (keratocan; [5])	Reduction of lumican accumulation (lumican; [4]) [%]	Lumican accumulation in the medium (lumican; [5])	PGDS level in the medium with EDB ([1]; EDB in medium containing insulin and ascorbate)	Toxicity to the cells (cells)	Cell number (DNA content) over 10-day culture period (keratocytes [2])	Total collagen synthesized, fold more compared to control (keratocytes [3]; day 1-4, insulin 10 μg/ml, ascorbate 1 mM, vs control medium) [fold]	Collagen in the cell layer, fold increase compared to control (keratocytes [3]; cell layer, vs control) [fold]	Collagen in the medium, fold increase compared to control (keratocytes [3]; medium, vs control) [fold]	Pepsin-resistant collagen (α1(I), α2(I), α1(V) bands) in the medium (collagen types I and V; SDS-PAGE)	Keratocan level in the medium, fold increase compared to control (keratocan; [6])	Lumican level in the medium, fold increase compared to control (lumican; [6])	PGDS level in the medium [1, 6]	35SO4 incorporation into KS, fold compared to control (keratan sulfate)	35SO4 incorporation into CS, fold compared to control (chondroitin sulfate)
CCOC(=O)c1ccc(O)c(O)c1 [EDB, Ethyl-3,4-dihydroxybenzoate]	absent	28	levels below of those measured in insulin alone	19	levels below of those measured in insulin alone	declined but the decrease was not significant	not toxic to the cells	–	–	–	–	–	–	–	–	–	–
insulin: insulin added at 10 μg/ml to defined DMEM medium for keratocyte culture	–	–	–	–	–	–	–	increased in number	4	5	3	absent	no effect	no effect	neither ascorbate nor insulin affected PGDS levels	only minor changes	only minor changes
